Measured values published in patent US6274738A, “Carboxamide derivatives having aryl and thiazole rings” (Geron Corporation, priority 1997, dated 2001).

These compounds were tested against T1, DNA primase (Homo sapiens, UniProt P49642+P49643) (assay: Primase activity assay (incorporation of radioactive dATP on poly(dT) template)). Conditions: approximate concentration at which 50% of the primase enzyme activity was inhibited; determined using the methods described herein; read-out: IC50 (primase-inhibiting properties).
T1 construct: using a nuclear extract comprising primase activity, as described above; endogenous in cells; host or cells: nuclear extract
Assay type: biochemical
Experimental: In the assay, primase was diluted with primase dilution buffer (50% glycerol, 50 mM Tris HCl (pH 8.0) 20 mM KCl, 1 mM EDTA, 1 mM βME) to achieve a selected reaction volume (typically, reactions were carried out in an overall volume of 60 μl). A typical 60 μl reaction volume further included 50 mM Tris HCl (pH 8.0); 20 mM KCl, 200 μg/ml BSA, 4 mM MgCl2, 2 mM fresh DTT, 2 mM rATP, 5 μCi ^32 P (800 Ci/mmol) or 2.5 μCi ^33 P (2,000 Ci/mMol) dATP, 10 μg/ml Poly (dT), and primase and polymerase α.
The recombinant 180 Kd human polymerase ax protein was isolated from a bacculovirally transduced SF9 cell as described in Wang et al. (1995) Methods in Enzymology 262: 77-84. Typically, about 0.05 μg of p180 and about 0.025 μg of a 1:1 mixture of p49/p58 primase subunits were used per reaction.
Several reactions were typically set up in parallel, although a single reaction can also be assessed. For example, a Zymate XP (Zymark Corporation; Hopkinton, Mass.) automated robot using Microlab 2200 (Hamilton; Reno, Nev.) pipeting station to transfer parallel samples to 96 well microtiter plate was used to set up several parallel simultaneous reactions.
Parallel reactions were incubated for 30 minutes at 30° C. 15 μl of each reaction was spotted into one well on a Unifilter plate (Whatman GF/C glass fiber filter bottom), typically using the automated system described. The filters were then air dried. The Unifilter plate was placed onto the vacuum chamber of a dot blot apparatus, and 200 μl of ice cold 5% TCA/20 mM sodium pyrophosphate wash was added to each well, and vacuum applied. Each filter was washed three times. 100 μl of an ice cold 70% ethanol wash was added then added to each well, and vacuum applied. The ethanol wash was repeated, and the filters allowed to air dry. Excess fluid was removed from the bottom of the plate. The bottom of the plate was sealed with a transparent sealer, and 50 μl of Microscint-20 scintillation fluid was added to each well, e.g., using a Biomek1000® (Beckman Instruments; Dallas, Tex.). The top of the plate was sealed with TOPSEAL-S® Microplate Heat Sealing Film and CPM were counted for each well using a topcount microplate scintillation counter (Packard; Downers Grove, Ill.) or Trilux Microbeta 1450 (Wallac; Gaithersburg, Md.).
An assay similar to Example 2 was also developed to measure primase activity. Although the assay is described below with reference to using a nuclear extract as the source for primase activity, one of skill will recognize that the assay can easily be adapted for purified or recombinant primase. Examples 1 and 2 provide a description of the buffers, nuclear extracts, etc.
The reagents were combined into one or more separate reaction mixtures, with the poly dT, nuclear extract, and ^32 dATP being added just before use. The reaction mixtures were incubated for 1 hour at 37° C. The reactions were spotted onto filters on a unifilter plate and treated as described in Example 2.
The primase modulator compounds show in FIG. 1 were determined to modulate primase activity in the assays shown above, using a nuclear extract comprising primase activity, as described above.
For primary screening, compounds were added at the beginning of the reaction with all reagents as described above. Compounds were tested at a concentration of 100 μM. Compounds were tested in duplicate reactions.
This concentration information was used to determine the approximate IC50 for the primase modulating agents described in FIG. 1. The extract/enzyme preparation for primase modulating agents was preincubated with the compound for 30 min at 37° C. prior to addition of the remaining reagents.
The example modulators are primase inhibitors. The IC50 s for the compounds indicated in FIG. 1 was the approximate concentration of the modulator at which 50% of the primase enzyme activity in a reaction mixture was inhibited by the modulator.

T1 sequence (P49642 whole entry): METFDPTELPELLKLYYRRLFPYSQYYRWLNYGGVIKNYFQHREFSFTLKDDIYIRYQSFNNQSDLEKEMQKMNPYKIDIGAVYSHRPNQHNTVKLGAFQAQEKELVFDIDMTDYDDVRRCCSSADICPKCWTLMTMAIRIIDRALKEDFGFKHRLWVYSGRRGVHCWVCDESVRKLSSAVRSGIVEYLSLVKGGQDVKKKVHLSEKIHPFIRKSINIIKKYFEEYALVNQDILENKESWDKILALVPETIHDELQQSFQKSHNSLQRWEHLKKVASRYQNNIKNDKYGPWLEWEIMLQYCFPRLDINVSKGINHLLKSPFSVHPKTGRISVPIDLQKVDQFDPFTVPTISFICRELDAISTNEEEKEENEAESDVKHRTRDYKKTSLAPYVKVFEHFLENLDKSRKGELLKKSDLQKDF
T1 sequence (P49643 whole entry): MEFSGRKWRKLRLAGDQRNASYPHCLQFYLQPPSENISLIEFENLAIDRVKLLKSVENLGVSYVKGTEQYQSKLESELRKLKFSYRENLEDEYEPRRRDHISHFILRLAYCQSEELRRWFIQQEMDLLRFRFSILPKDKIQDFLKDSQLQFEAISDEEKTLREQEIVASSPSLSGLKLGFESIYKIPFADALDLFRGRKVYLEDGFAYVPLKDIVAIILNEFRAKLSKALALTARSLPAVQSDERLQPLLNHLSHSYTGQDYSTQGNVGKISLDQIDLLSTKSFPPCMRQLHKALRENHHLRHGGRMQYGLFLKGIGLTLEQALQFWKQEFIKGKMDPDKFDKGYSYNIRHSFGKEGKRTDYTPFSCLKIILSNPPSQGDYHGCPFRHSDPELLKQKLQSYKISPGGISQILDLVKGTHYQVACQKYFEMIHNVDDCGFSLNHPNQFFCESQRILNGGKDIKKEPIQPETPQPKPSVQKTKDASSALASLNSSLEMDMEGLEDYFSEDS
T1 sequence (P09884 whole entry partner): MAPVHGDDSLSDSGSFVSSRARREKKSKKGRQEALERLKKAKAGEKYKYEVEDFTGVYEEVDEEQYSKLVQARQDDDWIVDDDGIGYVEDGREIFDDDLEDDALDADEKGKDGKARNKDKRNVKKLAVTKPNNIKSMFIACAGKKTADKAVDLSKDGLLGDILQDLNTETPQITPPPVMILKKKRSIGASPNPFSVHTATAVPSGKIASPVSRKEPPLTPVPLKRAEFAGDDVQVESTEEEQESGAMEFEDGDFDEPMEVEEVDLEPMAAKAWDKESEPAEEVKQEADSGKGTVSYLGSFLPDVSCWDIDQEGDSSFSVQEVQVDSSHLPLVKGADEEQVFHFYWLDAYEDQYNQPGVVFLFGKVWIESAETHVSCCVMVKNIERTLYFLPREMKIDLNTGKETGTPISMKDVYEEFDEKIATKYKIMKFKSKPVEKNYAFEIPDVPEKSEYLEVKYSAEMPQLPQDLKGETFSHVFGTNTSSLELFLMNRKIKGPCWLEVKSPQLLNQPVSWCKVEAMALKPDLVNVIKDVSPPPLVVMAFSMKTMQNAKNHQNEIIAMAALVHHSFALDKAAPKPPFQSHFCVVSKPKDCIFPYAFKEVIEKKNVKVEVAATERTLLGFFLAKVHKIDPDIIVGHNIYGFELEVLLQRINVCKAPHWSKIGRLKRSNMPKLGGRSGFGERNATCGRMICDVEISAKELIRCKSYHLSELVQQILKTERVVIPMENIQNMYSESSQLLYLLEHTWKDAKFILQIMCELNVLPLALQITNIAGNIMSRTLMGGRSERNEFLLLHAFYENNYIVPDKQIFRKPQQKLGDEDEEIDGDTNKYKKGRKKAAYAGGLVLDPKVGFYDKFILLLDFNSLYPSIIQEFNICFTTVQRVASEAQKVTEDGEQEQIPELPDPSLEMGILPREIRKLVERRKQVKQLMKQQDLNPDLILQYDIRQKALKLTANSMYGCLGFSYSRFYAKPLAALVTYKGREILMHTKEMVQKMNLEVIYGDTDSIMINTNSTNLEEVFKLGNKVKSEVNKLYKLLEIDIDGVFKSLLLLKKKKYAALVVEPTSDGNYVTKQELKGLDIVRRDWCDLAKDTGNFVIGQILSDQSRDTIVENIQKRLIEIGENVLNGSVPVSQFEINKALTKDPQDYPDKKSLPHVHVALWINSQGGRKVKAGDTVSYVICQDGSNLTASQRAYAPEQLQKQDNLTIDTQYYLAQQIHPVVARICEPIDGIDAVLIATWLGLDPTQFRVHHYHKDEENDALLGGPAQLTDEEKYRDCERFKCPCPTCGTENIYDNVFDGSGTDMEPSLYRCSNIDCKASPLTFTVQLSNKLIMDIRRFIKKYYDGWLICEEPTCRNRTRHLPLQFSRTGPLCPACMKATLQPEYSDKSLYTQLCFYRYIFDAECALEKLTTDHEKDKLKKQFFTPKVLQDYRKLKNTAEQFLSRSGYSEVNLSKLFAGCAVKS
T1 sequence (Q14181 whole entry partner): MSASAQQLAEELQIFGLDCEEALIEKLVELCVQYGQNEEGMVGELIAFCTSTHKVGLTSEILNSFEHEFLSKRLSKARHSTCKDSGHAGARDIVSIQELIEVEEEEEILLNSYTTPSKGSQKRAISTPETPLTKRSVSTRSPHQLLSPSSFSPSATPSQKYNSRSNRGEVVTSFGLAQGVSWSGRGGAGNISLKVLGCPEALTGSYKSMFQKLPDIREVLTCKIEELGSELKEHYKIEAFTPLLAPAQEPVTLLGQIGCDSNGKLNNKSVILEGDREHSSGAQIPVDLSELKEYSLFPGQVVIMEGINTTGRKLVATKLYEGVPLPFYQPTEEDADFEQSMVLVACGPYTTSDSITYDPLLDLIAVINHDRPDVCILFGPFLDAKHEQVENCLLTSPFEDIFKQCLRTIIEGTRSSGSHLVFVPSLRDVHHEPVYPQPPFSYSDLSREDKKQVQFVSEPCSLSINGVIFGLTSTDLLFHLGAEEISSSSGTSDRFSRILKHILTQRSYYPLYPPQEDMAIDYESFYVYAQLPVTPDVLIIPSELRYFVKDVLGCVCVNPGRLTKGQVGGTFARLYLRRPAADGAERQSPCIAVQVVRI

Row | Structure (SMILES) | IC50
1 | O=C(Nc1ccc(C(F)(F)F)cc1)c1csc(-c2ccncc2)n1 [Compound 5] | ~44 µM
2 | O=C(Nc1ccc(Cl)cc1)c1csc(-c2ccncc2)n1 [Compound 6] | ~37 µM
3 | O=C(Nc1ccc(Br)cc1)c1csc(-c2ccncc2)n1 [Compound 7] | ~63 µM

Further compounds by falling IC50, results first:

Row | IC50 | Structure (SMILES)
4 | ~37 µM | O=C(Nc1cccc(C(F)(F)F)c1)c1csc(-c2ccncc2)n1 [Compound 4]
5 | ~30 µM | O=C(Nc1ccccc1Cl)c1csc(-c2cccnc2)n1 [Compound 2]
6 | ~19 µM | O=C(Nc1ccc(F)cc1F)c1csc(-c2ccncc2)n1 [Compound 8]
